Reference: patent US10081624B2, “Heterocyclic compound” (Takeda Pharmaceutical Company Limited, priority 2014, dated 2018)
“Also recorded” adds a separate entry of the source.

Legend:
acetylated tubulin = experiment: Measurement of acetylated tubulin in spleen after oral administration (Western blotting); format: in vivo; conditions: BALE/c mice, female, 30 mg/kg orally
Experimental: Compound A (compound of Example 36) and compound B (compound of Example 37) were each orally administered to BALE/c mice (female, Charles River Japan, 8-weeks old when used) at a dose of 30 mg/kg. Compound A and compound B were each suspended in 0.5% methyl cellulose solution, and the suspensions were each orally administered at a dose of 10 mL/kg. For control group, 0.5% methyl cellulose solution was administered. After administration, a part (about 30 mg) of the spleen was recovered into tube containing beads (Lysing Matrix I, Cat. 6918-100, MP Biomedicals), and cryopreserved at −80° C. until used.
0.5 mL RIPA buffer containing protease inhibitor (Cat. 25955-11, Nacalai tesque) was added to the spleen placed in Lysing Matrix I tube, and the spleen was crushed over 20 sec by FastPrep-24. The sample tube was centrifuged (15,000 rpm, 4° C.,) for 5 min, and the supernatant was transferred to another tube. […] The protein amount of the sample was measured using BCA protein assay kit (Cat. 23227, Pierce). […]
The membrane was immersed in blocking reagent (Cat. NYPBR01, TOYOBO) at room temperature for 1 hr, washed, and reacted with primary antibody overnight at 4° C. After washed, the membrane was reacted with secondary antibody at room temperature for 1 hr, and immersed in ECL prime detecting solution (Cat. RPN2232, GE), and the chemiluminescence was detected by luminoimage analyzer LAS3000. […]

HDAC1 enzyme = target: T1, HDAC1 enzyme (Homo sapiens, UniProt Q13547); experiment: HDAC1 enzyme inhibitory assay (HDAC-Glo I/II Assay kit); format: biochemical; conditions: 1 μM test compound; for inhibition at 1 µM: read-out: HDAC1 inhibitory rate (%) (1 μM)
T1 construct: prepared by transducing full length HDAC1 and HDAC6 genes into Sf-9 insect cells; GST; purchased SignalChem; host or cells: Sf-9 insect cells
Outline: (§1)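 Relative activity was calculated from luminescence, with wells lacking enzyme defined as 100% inhibition. The enzymes were full-length HDAC1 or HDAC6 from Sf-9 cells, preincubated with test compound for 60 min before a 20-min substrate-developer reaction at room temperature.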

HDAC6 enzyme = target: T2, HDAC6 enzyme (Homo sapiens, UniProt Q9UBN7); experiment: HDAC6 enzyme inhibitory assay (HDAC-Glo I/II Assay kit); format: biochemical; conditions: 1 μM test compound; for inhibition at 1 µM: read-out: HDAC6 inhibitory rate (%) (1 μM)
T2 construct: prepared by transducing full length HDAC1 and HDAC6 genes into Sf-9 insect cells; GST; purchased SignalChem; host or cells: Sf-9 insect cells
T2 sequence (Q9UBN7 1-1215): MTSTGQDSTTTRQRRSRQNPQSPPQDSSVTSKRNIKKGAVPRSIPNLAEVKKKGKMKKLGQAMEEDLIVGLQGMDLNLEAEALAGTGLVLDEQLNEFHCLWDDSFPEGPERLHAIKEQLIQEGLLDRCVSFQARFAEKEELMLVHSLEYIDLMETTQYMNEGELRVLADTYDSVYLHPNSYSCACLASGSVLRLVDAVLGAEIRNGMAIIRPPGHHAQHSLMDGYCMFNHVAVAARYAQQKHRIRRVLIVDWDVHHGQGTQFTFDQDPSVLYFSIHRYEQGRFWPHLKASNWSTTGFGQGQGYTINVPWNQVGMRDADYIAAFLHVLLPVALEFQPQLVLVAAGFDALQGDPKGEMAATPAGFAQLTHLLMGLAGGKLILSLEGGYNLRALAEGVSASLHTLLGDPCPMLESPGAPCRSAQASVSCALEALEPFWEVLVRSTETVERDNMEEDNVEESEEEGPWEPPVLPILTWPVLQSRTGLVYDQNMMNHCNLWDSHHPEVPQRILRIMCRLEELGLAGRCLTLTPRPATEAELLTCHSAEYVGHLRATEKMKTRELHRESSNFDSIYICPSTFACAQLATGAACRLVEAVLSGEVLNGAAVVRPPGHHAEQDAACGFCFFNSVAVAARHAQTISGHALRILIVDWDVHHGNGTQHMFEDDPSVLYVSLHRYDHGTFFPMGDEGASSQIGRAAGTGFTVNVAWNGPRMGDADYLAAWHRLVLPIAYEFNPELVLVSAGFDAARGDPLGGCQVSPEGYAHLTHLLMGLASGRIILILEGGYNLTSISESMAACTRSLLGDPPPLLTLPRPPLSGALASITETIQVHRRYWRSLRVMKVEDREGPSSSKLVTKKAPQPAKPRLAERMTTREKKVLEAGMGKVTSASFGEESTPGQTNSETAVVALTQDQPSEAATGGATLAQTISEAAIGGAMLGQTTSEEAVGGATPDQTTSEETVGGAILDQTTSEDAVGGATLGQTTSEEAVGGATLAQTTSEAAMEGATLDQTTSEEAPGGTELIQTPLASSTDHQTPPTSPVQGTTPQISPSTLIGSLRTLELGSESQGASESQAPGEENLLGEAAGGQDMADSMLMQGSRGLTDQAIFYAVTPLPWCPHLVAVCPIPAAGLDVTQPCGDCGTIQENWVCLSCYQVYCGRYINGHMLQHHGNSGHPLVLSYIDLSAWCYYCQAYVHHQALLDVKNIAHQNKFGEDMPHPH
Outline: as §1

T1 sequence (Q13547 whole entry): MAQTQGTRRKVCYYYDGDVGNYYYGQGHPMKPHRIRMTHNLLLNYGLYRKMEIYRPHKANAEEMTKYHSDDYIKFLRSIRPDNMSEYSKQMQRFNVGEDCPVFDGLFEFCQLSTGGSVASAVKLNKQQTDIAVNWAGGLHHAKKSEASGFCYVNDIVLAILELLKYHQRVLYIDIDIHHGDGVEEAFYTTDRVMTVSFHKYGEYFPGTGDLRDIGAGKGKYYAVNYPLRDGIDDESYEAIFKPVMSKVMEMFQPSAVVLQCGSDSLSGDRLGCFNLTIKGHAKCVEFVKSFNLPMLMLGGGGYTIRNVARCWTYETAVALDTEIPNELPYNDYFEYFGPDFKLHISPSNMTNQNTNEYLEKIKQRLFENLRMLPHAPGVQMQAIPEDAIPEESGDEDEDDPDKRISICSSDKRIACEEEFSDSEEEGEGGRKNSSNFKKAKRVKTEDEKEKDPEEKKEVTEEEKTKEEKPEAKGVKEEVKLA

Structure (SMILES)	acetylation of tubulin in spleen (protein expression level of acetylated tubulin, fold increase relative to 0.5% methyl cellulose solution administration group) (acetylated tubulin)	inhibition at 1 µM (HDAC1 enzyme)	HDAC6 inhibitory rate (%) (1 μM) (HDAC6 enzyme)	inhibition at 1 µM (HDAC6 enzyme)	HDAC1 inhibitory rate (%) (1 μM) (HDAC1 enzyme; 1 µM)
O=C(NC[C@H]1COCCN1C(=O)c1cc(Cl)cc(Cl)c1)c1ccc(-c2noc(C(F)(F)F)n2)cc1 [compound B, N-(((3S)-4-(3,5-dichlorobenzoyl)morpholin-3-yl)methyl)-4-(5-(trifluoromethyl)-1,2,4-oxadiazol-3-yl)benzamide]	increase in acetylated tubulin; also recorded: increased most acetylation of tubulin in spleen 8 hr after administration				
O=C(NC[C@H]1COCCN1C(=O)c1ccccc1)c1ccc(-c2noc(C(F)(F)F)n2)cc1 [compound A, N-(((3S)-4-benzoylmorpholin-3-yl)methyl)-4-(5-(trifluoromethyl)-1,2,4-oxadiazol-3-yl)benzamide]	increase in acetylated tubulin; also recorded: increased most acetylation of tubulin in spleen 8 hr after administration				
COc1cccc(C(=O)N2CCOC[C@@H]2CNC(=O)c2ccc(-c3noc(C(F)(F)F)n3)cc2)c1 [Example 42, N-(((3S)-4-(3-methoxybenzoyl)morpholin-3-yl)methyl)-4-(5-(trifluoromethyl)-1,2,4-oxadiazol-3-yl)benzamide]		16%	101%		
Cn1nc(C(=O)N2CCOCC2CNC(=O)c2ccc(-c3noc(C(F)(F)F)n3)cc2)c2ccccc21 (stereo not drawn) [Example 18, N-((4-((1-methyl-1H-indazol-3-yl)carbonyl)morpholin-3-yl)methyl)-4-(5-(trifluoromethyl)-1,2,4-oxadiazol-3-yl)benzamide]		9%		98%	
O=C(NC[C@@H]1COCCN1C(=O)C1(c2ccccc2)CC1)c1ccc(-c2noc(C(F)(F)F)n2)cc1 [Example 128, N-(((3R)-4-((1-phenylcyclopropyl)carbonyl)morpholin-3-yl)methyl)-4-(5-(trifluoromethyl)-1,2,4-oxadiazol-3-yl)benzamide]		6%		92%	
O=C(NCC1COCCN1C(=O)C12CC3CC(CC(C3)C1)C2)c1ccc(-c2noc(C(F)(F)F)n2)cc1 (stereo in doubt) [Example 97, N-(((3S)-4-(adamantan-1-ylcarbonyl)morpholin-3-yl)methyl)-4-(5-(trifluoromethyl)-1,2,4-oxadiazol-3-yl)benzamide]		16%		96%	
O=C(NC[C@H]1COCCN1C(=O)N1CCC[C@H]1CO)c1ccc(-c2noc(C(F)(F)F)n2)cc1 [Example 107, N-(((3S)-4-(((2S)-2-(hydroxymethyl)pyrrolidin-1-yl)carbonyl)morpholin-3-yl)methyl)-4-(5-(trifluoromethyl)-1,2,4-oxadiazol-3-yl)benzamide]		14%		84%	
O=C(NCC1COCCN1C(=O)C1(c2ccccc2)COC1)c1ccc(-c2noc(C(F)(F)F)n2)cc1 (stereo in doubt) [Example 103, N-(((3S)-4-((3-phenyloxetan-3-yl)carbonyl)morpholin-3-yl)methyl)-4-(5-(trifluoromethyl)-1,2,4-oxadiazol-3-yl)benzamide]		35%		98%	
O=C(NC[C@H]1COCCN1C(=O)c1csnn1)c1ccc(-c2noc(C(F)(F)F)n2)cc1 [Example 70, N-(((3S)-4-(1,2,3-thiadiazol-4-ylcarbonyl)morpholin-3-yl)methyl)-4-(5-(trifluoromethyl)-1,2,4-oxadiazol-3-yl)benzamide]		5%		95%	
O=C(NC[C@H]1COCCN1C(=O)N1CCC(CCO)C1)c1ccc(-c2noc(C(F)(F)F)n2)cc1 (stereo partly drawn) [Example 301, N-(((3S)-4-((3-(2-hydroxyethyl)pyrrolidin-1-yl)carbonyl)morpholin-3-yl)methyl)-4-(5-(trifluoromethyl)-1,2,4-oxadiazol-3-yl)benzamide]			92%		3%
